According to ChEMBL document CHEMBL4665657, “2-Phenyl-8-(1-phenylallyl)-chromenone compounds have a pan-PPAR modulator pharmacophore” (Bioorg Med Chem, 2019):
pKi: −log10 of the molar value. Active and inactive are the calls of the source. No cut-off for these calls is given here.

Experiments:
BMMSC [1] = assay: Induction of adipogenesis in human BMMSC cells assessed as increase in ANGPTL4 mRNA at 1 uM incubated for 3 days by qRT-PCR analysis; type: functional, cell-based; conditions: time 3.0 day
BMMSC [2] = assay: Induction of adipogenesis in human BMMSC cells assessed as increase in ACACB mRNA at 1 uM incubated for 3 days by qRT-PCR analysis; type: functional, cell-based; conditions: time 3.0 day
BMMSC [3] = assay: Induction of adipogenesis in human BMMSC cells assessed as increase in HMGCS2 mRNA at 1 uM incubated for 3 days by qRT-PCR analysis; type: functional, cell-based; conditions: time 3.0 day
BMMSC [4] = assay: Induction of adipogenesis in human BMMSC cells assessed as increase in HMGCR mRNA at 1 uM incubated for 3 days by qRT-PCR analysis; type: functional, cell-based; conditions: time 3.0 day
BMMSC [5] = assay: Induction of adipogenesis in human BMMSC cells assessed as increase in ACOX1 mRNA at 1 uM incubated for 3 days by qRT-PCR analysis; type: functional, cell-based; conditions: time 3.0 day
BMMSC [6] = assay: Induction of adipogenesis in human BMMSC cells assessed as increase in ANGPTL4 mRNA at 10 uM incubated for 3 days by qRT-PCR analysis; type: functional, cell-based; conditions: time 3.0 day
BMMSC [7] = assay: Induction of adipogenesis in human BMMSC cells assessed as increase in ACACB mRNA at 10 uM incubated for 3 days by qRT-PCR analysis; type: functional, cell-based; conditions: time 3.0 day
BMMSC [8] = assay: Induction of adipogenesis in human BMMSC cells assessed as increase in HMGCS2 mRNA at 10 uM incubated for 3 days by qRT-PCR analysis; type: functional, cell-based; conditions: time 3.0 day
BMMSC [9] = assay: Induction of adipogenesis in human BMMSC cells assessed as increase in HMGCR mRNA at 10 uM incubated for 3 days by qRT-PCR analysis; type: functional, cell-based; conditions: time 3.0 day
BMMSC [10] = assay: Induction of adipogenesis in human BMMSC cells assessed as increase in adiponectin mRNA at 10 uM incubated for 3 days by qRT-PCR analysis; type: functional, cell-based; conditions: time 3.0 day
BMMSC [11] = assay: Induction of adipogenesis in human BMMSC cells assessed as increase in adiponectin secretion at 10 uM in presence of pioglitazone incubated for 5 days by ELISA; type: functional, cell-based; conditions: time 5.0 day
BMMSC [12] = assay: Induction of adipogenesis in human BMMSC cells assessed as increase in adiponectin secretion at 10 uM in presence of GW501516 incubated for 5 days by ELISA; type: functional, cell-based; conditions: time 5.0 day
BMMSC [13] = assay: Induction of adipogenesis in human BMMSC cells assessed as increase in adiponectin secretion at 10 uM in presence of WY14643 incubated for 5 days by ELISA; type: functional, cell-based; conditions: time 5.0 day
[14] = target: T1, Oxysterols receptor LXR-beta (Homo sapiens) (UniProt P55055); assay: Transactivation of LXRbeta (unknown origin) by TR-FRET assay
T1 sequence (whole entry): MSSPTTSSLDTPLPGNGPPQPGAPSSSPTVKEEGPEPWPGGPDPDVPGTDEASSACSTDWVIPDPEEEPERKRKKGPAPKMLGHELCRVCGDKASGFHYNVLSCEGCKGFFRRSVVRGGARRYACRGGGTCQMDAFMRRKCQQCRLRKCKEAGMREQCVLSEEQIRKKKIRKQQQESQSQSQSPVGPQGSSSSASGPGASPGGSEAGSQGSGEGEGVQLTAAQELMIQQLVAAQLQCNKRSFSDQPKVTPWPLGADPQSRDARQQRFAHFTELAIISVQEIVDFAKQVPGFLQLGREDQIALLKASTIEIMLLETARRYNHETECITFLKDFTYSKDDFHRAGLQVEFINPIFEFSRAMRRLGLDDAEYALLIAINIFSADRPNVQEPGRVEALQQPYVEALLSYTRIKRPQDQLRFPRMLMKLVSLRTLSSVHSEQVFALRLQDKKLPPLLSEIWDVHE

[15] = target: T2, Bile acid receptor (Homo sapiens) (UniProt Q96RI1); assay: Transactivation of FXR (unknown origin) by TR-FRET assay
T2 sequence (whole entry): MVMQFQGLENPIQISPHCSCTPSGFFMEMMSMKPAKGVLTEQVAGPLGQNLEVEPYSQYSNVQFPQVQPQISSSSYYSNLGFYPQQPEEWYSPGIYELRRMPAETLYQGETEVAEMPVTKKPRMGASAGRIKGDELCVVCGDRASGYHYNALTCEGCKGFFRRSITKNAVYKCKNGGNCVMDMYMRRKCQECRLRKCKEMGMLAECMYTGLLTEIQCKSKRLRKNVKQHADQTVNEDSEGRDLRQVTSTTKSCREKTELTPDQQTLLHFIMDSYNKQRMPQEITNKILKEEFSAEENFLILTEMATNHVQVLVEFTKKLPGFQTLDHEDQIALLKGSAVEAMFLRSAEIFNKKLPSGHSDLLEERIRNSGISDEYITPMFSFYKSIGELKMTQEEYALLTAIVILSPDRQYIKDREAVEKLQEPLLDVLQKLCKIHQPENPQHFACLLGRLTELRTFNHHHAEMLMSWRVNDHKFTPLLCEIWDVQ

[16] = target: T3, Glucocorticoid receptor (Homo sapiens) (UniProt P04150); assay: Binding affinity to glucocorticoid receptor (unknown origin) by TR-FRET assay
T3 sequence (whole entry): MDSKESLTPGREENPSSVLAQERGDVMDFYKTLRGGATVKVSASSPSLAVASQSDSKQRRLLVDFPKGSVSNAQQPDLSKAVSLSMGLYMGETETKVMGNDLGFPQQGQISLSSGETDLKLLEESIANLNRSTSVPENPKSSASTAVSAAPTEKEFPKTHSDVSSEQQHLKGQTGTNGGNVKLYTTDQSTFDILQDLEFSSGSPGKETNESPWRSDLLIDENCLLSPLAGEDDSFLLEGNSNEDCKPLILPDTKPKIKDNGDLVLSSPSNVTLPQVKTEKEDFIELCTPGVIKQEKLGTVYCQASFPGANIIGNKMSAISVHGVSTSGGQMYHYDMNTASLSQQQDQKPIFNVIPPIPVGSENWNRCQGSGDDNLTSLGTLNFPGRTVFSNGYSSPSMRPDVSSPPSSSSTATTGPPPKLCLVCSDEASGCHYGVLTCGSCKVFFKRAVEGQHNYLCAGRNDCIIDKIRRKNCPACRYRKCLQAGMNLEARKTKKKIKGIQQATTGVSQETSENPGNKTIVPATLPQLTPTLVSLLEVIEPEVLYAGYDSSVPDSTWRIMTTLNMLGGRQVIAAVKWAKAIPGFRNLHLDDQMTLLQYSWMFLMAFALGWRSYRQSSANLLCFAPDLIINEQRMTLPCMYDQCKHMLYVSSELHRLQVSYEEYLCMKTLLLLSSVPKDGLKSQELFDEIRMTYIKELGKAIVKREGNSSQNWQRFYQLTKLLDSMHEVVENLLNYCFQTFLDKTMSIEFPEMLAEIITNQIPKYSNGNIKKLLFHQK

[17] = target: T4, Oxysterols receptor LXR-alpha (Homo sapiens) (UniProt Q13133); assay: Transactivation of LXRalpha (unknown origin) by TR-FRET assay
T4 sequence (whole entry): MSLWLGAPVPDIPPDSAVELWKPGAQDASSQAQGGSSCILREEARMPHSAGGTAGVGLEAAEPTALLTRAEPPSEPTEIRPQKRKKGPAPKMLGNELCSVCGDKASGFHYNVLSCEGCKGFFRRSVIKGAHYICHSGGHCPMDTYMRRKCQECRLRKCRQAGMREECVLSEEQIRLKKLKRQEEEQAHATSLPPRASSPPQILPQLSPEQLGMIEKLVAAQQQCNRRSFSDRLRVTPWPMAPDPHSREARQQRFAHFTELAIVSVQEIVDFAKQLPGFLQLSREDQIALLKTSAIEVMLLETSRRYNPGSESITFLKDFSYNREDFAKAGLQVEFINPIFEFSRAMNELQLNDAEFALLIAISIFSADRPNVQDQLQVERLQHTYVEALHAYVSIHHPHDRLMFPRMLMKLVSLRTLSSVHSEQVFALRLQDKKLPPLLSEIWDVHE

[18] = target: T5, Peroxisome proliferator-activated receptor gamma (Homo sapiens, UniProt P37231); assay: Binding affinity to PPARgamma (unknown origin) by TR-FRET assay
T5 sequence (P37231 whole entry): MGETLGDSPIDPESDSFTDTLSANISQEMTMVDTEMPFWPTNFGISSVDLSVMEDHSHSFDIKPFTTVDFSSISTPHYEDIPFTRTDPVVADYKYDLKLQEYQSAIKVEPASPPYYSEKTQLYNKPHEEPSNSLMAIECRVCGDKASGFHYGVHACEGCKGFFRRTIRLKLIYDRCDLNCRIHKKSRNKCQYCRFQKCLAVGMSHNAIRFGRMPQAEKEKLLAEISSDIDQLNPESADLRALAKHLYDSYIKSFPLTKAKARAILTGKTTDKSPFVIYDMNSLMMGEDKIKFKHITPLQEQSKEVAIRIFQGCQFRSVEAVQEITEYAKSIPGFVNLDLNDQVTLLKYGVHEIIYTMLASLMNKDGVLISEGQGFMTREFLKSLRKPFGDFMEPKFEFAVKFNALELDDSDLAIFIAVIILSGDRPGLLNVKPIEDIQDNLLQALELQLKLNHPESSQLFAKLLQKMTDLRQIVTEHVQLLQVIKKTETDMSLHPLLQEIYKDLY

[19] = target: T6, Peroxisome proliferator-activated receptor delta (Homo sapiens, UniProt Q03181); assay: Binding affinity to PPARdelta (unknown origin) by TR-FRET assay
T6 sequence (Q03181 whole entry): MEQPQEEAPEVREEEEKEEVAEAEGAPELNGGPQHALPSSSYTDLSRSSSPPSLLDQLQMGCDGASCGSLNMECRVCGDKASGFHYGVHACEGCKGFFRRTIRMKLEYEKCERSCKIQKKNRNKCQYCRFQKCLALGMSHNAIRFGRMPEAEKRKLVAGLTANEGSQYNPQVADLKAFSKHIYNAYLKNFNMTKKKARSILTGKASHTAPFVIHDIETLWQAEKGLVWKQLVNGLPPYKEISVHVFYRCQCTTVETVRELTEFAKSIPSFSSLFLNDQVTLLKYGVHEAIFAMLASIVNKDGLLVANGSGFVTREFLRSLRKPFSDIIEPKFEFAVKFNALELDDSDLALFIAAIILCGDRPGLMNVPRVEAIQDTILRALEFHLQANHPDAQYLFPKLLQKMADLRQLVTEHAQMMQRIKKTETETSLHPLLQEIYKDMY

[20] = target: T7, Peroxisome proliferator-activated receptor alpha (Homo sapiens, UniProt Q07869); assay: Binding affinity to PPARalpha (unknown origin) by TR-FRET assay
T7 sequence (Q07869 whole entry): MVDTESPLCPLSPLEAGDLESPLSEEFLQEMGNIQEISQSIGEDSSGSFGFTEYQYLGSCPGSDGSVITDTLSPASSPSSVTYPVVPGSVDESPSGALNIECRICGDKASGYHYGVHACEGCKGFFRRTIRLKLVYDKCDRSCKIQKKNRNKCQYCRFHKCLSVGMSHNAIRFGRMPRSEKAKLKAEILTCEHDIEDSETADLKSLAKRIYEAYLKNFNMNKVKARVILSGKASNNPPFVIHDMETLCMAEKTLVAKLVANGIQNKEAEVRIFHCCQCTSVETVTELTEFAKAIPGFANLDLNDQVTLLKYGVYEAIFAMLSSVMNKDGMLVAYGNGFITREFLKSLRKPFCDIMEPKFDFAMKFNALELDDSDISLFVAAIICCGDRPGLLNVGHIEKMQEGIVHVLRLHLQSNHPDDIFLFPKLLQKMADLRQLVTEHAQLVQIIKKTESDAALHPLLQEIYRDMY

BMMSC [21] = assay: Induction of adipogenesis in human BMMSC cells assessed as lipid droplet formation at 10 uM incubated for 5 days by oil red O staining based inverted microscopy analysis; type: functional, cell-based; conditions: time 5.0 day
BMMSC [22] = assay: Induction of adipogenesis in human BMMSC cells assessed as increase in adiponectin secretion incubated for 5 days by ELISA; type: functional, cell-based; conditions: time 5.0 day
BMMSC [23] = assay: Induction of adipogenesis in human BMMSC cells assessed as increase in adiponectin secretion at 10 uM incubated for 5 days by ELISA; type: functional, cell-based; conditions: time 5.0 day
BMMSC [24] = assay: Induction of adipogenesis in human BMMSC cells assessed as increase in ACOX1 mRNA at 10 uM incubated for 3 days by qRT-PCR analysis; type: functional, cell-based; conditions: time 3.0 day

Compound | Activity (BMMSC [1]) | Activity (BMMSC [2]) | Activity (BMMSC [3]) | Activity (BMMSC [4]) | Activity (BMMSC [5]) | Activity (BMMSC [7]) | Activity (BMMSC [8]) | Activity (BMMSC [9]) | Activity (BMMSC [24]) | other results
CCc1ccc(CCOc2ccc(CC3SC(=O)NC3=O)cc2)nc1 (stereo not drawn) | Active | Active | inactive | Active | inactive |  |  |  |  | 
Cc1cc(SCc2sc(-c3ccc(C(F)(F)F)cc3)nc2C)ccc1OCC(=O)O | Active | Active | inactive | Active | inactive |  |  |  |  | 
C=CC(c1ccccc1)c1c(O)cc(O)c2c(=O)cc(-c3ccccc3)oc12 (stereo not drawn) |  |  |  |  |  | Active | Active | Active | Active | Activity (BMMSC [6]): Active; Activity (BMMSC [10]): Active; Activity (BMMSC [11]): Active; Activity (BMMSC [12]): Active; Activity (BMMSC [13]): Active; Activity [14]: inactive; Activity [15]: inactive; Activity [16]: inactive; Activity [17]: inactive; pKi [18]: 5.85; pKi [19]: 5.93; pKi [20]: 6.02; Activity (BMMSC [21]): Active; Activity (BMMSC [22]): Dose-dependent effect; Activity (BMMSC [23]): Active
Cc1cccc(Nc2cc(Cl)nc(SCC(=O)O)n2)c1C |  |  |  |  |  | Active | Active | Active | Active | 
